Reference: patent publication US20240382629A1, “HETEROBIVALENT AND HOMOBIVALENT AGENTS TARGETING FIBROBLAST ACTIVATION PROTEIN ALPHA AND/OR PROSTATE-SPECIFIC MEMBRANE ANTIGEN” (The Johns Hopkins University, priority 2021, published 2024)
“And” between values parts separate entries of the source, which are not always exact repeats. Equal entries are not always repeated.

Experiment: Biodistribution of representative compounds ([^18F]Sri-07-56, [^18F]Sri-07-52, [^18F]JHU1221823, [^18F]FAPI-74), tissue % ID/g with carrier or blocker
Format: in vivo, mouse
Details: 20 μCi per mouse; for Bladder % ID/g / Blood % ID/g / Brain % ID/g / Fat % ID/g / Femur % ID/g / Heart % ID/g / Kidney % ID/g / Large intestine % ID/g / Liver % ID/g / Lung % ID/g / Muscle % ID/g / Pancreas % ID/g / Salivery gland % ID/g / Small intestine % ID/g / Spleen % ID/g / Stomach % ID/g / Tumor % ID/g: individual mice
Text: Biodistribution of Representative Compounds

N#C[C@@H]1CCCN1C(=O)CNC(=O)c1ccnc2ccc(OCCCNC(=O)CCOCCOCCOCCOCCNC(=O)[C@H](CCCCNC(=O)c3ccc([18F])nc3)NC(=O)CN3CCN(CC(=O)O)CCN(CC(=O)O)CCN(CC(=O)O)CC3)cc12 [[^18F]JHU1221823]
Bladder % ID/g Mean (60 min): 4.53 % ID/g
Blood % ID/g Mean (60 min): 9.54 % ID/g
Brain % ID/g Mean (60 min): 0.22 % ID/g
Fat % ID/g Mean (60 min): 1.07 % ID/g
Femur % ID/g Mean (60 min): 2.83 % ID/g
Heart % ID/g Mean (60 min): 4.65 % ID/g
Kidney % ID/g Mean (60 min): 2.73 % ID/g
Large intestine % ID/g Mean (60 min): 1.49 % ID/g
Liver % ID/g Mean (60 min): 2.99 % ID/g
Lung % ID/g Mean (60 min): 5.72 % ID/g
Muscle % ID/g Mean (60 min): 1.78 % ID/g
Pancreas % ID/g Mean (60 min): 2.14 % ID/g
Salivary gland % ID/g Mean (60 min): 6.93 % ID/g
Small intestine % ID/g Mean (60 min): 3.02 % ID/g
Spleen % ID/g Mean (60 min): 2.15 % ID/g
Stomach % ID/g Mean (60 min): 1.14 % ID/g
Tumor % ID/g Mean (60 min): 5.71 % ID/g
Bladder % ID/g (60 min): 6.41 % ID/g and 2.64 % ID/g
Blood % ID/g (60 min): 9.28 % ID/g and 9.80 % ID/g
Brain % ID/g (60 min): 0.23 % ID/g and 0.22 % ID/g
Fat % ID/g (60 min): 0.47 % ID/g and 1.68 % ID/g
Femur % ID/g (60 min): 2.55 % ID/g and 3.11 % ID/g
Heart % ID/g (60 min): 4.31 % ID/g and 4.98 % ID/g
Kidney % ID/g (60 min): 2.70 % ID/g and 2.77 % ID/g
Large intestine % ID/g (60 min): 1.29 % ID/g and 1.69 % ID/g
Liver % ID/g (60 min): 2.68 % ID/g and 3.29 % ID/g
Lung % ID/g (60 min): 5.53 % ID/g and 5.91 % ID/g
Muscle % ID/g (60 min): 1.79 % ID/g and 1.78 % ID/g
Pancreas % ID/g (60 min): 1.62 % ID/g and 2.66 % ID/g
Salivery gland % ID/g (60 min): 7.44 % ID/g and 6.43 % ID/g
Small intestine % ID/g (60 min): 2.59 % ID/g and 3.46 % ID/g
Spleen % ID/g (60 min): 1.86 % ID/g and 2.43 % ID/g
Stomach % ID/g (60 min): 0.84 % ID/g and 1.45 % ID/g
Tumor % ID/g (60 min): 4.35 % ID/g and 7.05 % ID/g
Bladder % ID/g Mean (120 min): 1.92 % ID/g
Blood % ID/g Mean (120 min): 6.28 % ID/g
Brain % ID/g Mean (120 min): 0.18 % ID/g
Fat % ID/g Mean (120 min): 1.45 % ID/g
Femur % ID/g Mean (120 min): 1.61 % ID/g
Heart % ID/g Mean (120 min): 3.49 % ID/g
Kidney % ID/g Mean (120 min): 1.93 % ID/g
Large intestine % ID/g Mean (120 min): 1.38 % ID/g
Liver % ID/g Mean (120 min): 2.18 % ID/g
Lung % ID/g Mean (120 min): 3.65 % ID/g
Muscle % ID/g Mean (120 min): 1.16 % ID/g
Pancreas % ID/g Mean (120 min): 4.67 % ID/g
Salivary gland % ID/g Mean (120 min): 8.11 % ID/g
Small intestine % ID/g Mean (120 min): 2.04 % ID/g
Spleen % ID/g Mean (120 min): 1.58 % ID/g
Stomach % ID/g Mean (120 min): 1.24 % ID/g
Tumor % ID/g Mean (120 min): 2.91 % ID/g
Bladder % ID/g (120 min): 2.63 % ID/g and 1.21 % ID/g
Blood % ID/g (120 min): 5.77 % ID/g and 6.78 % ID/g
Brain % ID/g (120 min): 0.19 % ID/g and 0.17 % ID/g
Fat % ID/g (120 min): 0.97 % ID/g and 1.93 % ID/g
Femur % ID/g (120 min): 1.71 % ID/g and 1.91 % ID/g
Heart % ID/g (120 min): 3.18 % ID/g and 3.79 % ID/g
Kidney % ID/g (120 min): 1.61 % ID/g and 2.24 % ID/g
Large intestine % ID/g (120 min): 1.40 % ID/g and 1.36 % ID/g
Liver % ID/g (120 min): 1.94 % ID/g and 2.42 % ID/g
Lung % ID/g (120 min): 3.13 % ID/g and 4.16 % ID/g
Muscle % ID/g (120 min): 1.18 % ID/g and 1.15 % ID/g
Pancreas % ID/g (120 min): 4.03 % ID/g and 5.32 % ID/g
Salivery gland % ID/g (120 min): 5.17 % ID/g and 11.05 % ID/g
Small intestine % ID/g (120 min): 1.88 % ID/g and 2.21 % ID/g
Spleen % ID/g (120 min): 1.49 % ID/g and 1.67 % ID/g
Stomach % ID/g (120 min): 1.11 % ID/g and 1.37 % ID/g
Tumor % ID/g (120 min): 2.88 % ID/g and 2.94 % ID/g
